According to patent US4411909A, “[(2-Oxo-3-tetrahydrothienylcarbamoyl)-alkylthio] acetic acids, their salts and esters, a process for preparation thereof and the pharmaceutical compositions containing same” (priority 1981, dated 1983):

Columns and labels:
bronchial mucus = assay: test of activity in the rabbit: production/secretion of bronchial mucus (tracheal cannula, technique of Scuri et al.); type: in vivo; settings: for variation % of secretion of mucus with respect to controls: intravenous, 10 mg/kg, 4 hours following vs 4 hours preceding treatment, versus physiological solution controls
Description: Rabbits were used weighing about 3 kg with a cannula implanted in the trachea according to the technique of Scuri et al., Boll. Chim. Farm., 119,(3), 1980. The quantity of mucus produced and excreted was recorded during the 4 hours preceding and the 4 hours following the treatment.

[1] = system: damage provoked by the action of sulfur dioxide on the bronchi; assay: test of mucolytic activity based on the inhalation of SO2 in the rat; type: in vivo
Source text: In the test of mucolytic activity based on the inhalation of SO2 in the rat, the compounds of the present invention have shown a good mucolytic activity.

[2] = acute toxicity in the mouse; settings: in vivo
[3] = acute toxicity in the rat; settings: in vivo
[4] = toxicity, overall statement; type: in vivo; settings: in words
[5] = intravenous, read-out: LD50 i.v.

Row | SMILES | variation % of secretion of mucus with respect to controls (bronchial mucus) | activity compared with reference product carbocysteine (mucus secretion) (bronchial mucus; i.v., same dose by weight (10 mg/kg)) | regression of bronchial damage compared with carbocysteine ([1]; PV 144 oral 500 mg/kg vs carbocysteine 500 mg/kg (3.35 mmol/kg)) | regression of the damage provoked by sulfur dioxide on the bronchi ([1]; oral, 500 mg/kg (2 mmol/kg)) | LD50 [2, 5] | LD50 ([2]; oral, read-out: LD50 oral) | LD50 [3, 5] | LD50 ([3]; oral, read-out: LD50 oral) | toxicity [4]
1 | N[C@@H](CSCC(=O)O)C(=O)O [carbocysteine, S-carboxymethylcysteine, reference compound] | 51.8% | – | – | – | – | – | – | – | –
2 | O=C(O)CSCC(=O)NC1CCSC1=O (stereo not shown) [PV 144, [(2-oxo-3-tetrahydrothienylcarbamoyl)-methylthio]acetic acid] | 52.1% | at least as active as the reference product | qualitatively and quantitatively equal | significant regression of the damage | > 3500 mg/kg | > 10000 mg/kg | > 3500 mg/kg | > 10000 mg/kg | virtually without toxicity
